PMC6995562, “Evaluating Iso-Mukaadial Acetate and Ursolic Acid Acetate as Plasmodium falciparum Hypoxanthine-Guanine-Xanthine Phosphoribosyltransferase Inhibitors” (Biomolecules, 2019)
Like-named read-outs stand apart in the source and are kept apart here.

Molecular target: T1, Plasmodium falciparum hypoxanthine-guanine-xanthine phosphoribosyltransferase (PfHGXPRT) (Plasmodium falciparum, UniProt Q8IJS1)
T1 construct: gene PF3D7_1012400; recombinant, N-terminal His6 tag (pET28-a), expressed in E. coli BL21 (DE3)
T1 sequence (Q8IJS1 entry or part of it): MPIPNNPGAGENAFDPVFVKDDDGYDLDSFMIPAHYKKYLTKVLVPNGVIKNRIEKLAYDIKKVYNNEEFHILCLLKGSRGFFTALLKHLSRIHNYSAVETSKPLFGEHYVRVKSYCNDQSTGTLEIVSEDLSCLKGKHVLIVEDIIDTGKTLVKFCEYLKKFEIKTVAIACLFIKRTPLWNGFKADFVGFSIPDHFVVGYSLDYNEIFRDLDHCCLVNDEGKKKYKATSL
Assay: microscale thermophoresis (MST) with labelled His-tagged protein; UV-Vis spectral change
Format: binding

| Compound | Kd [nM] | Kd (read-out: Kd) [nM] |
| --- | --- | --- |
| CC(=O)O[C@H]1CC[C@]2(C)[C@H]3CC=C4[C@@H]5[C@@H](C)[C@H](C)CC[C@]5(C(=O)O)CC[C@@]4(C)[C@]3(C)CC[C@H]2C1(C)C [UAA, ursolic acid acetate] | 2840 |  |
| iso-mukaadial acetate [IMA] |  | 83.3 |
